Paper PMC11509080, “Discovery of Kuraridin as a Potential Natural Anti-Melanogenic Agent: Focusing on Specific Target Genes and Multidirectional Signaling Pathways” (International Journal of Molecular Sciences, 2024)
One block for each compound: values may come before it.

Assays:
B16F10 cells = test: Cellular tyrosinase activity (L-DOPA oxidation) in α-MSH-induced cells; assay type: cell-based, Murine; settings: for Intracellular tyrosinase activity: α-MSH-induced B16F10 cells
Procedure: Tyrosinase activity was estimated by measuring the rate of L-DOPA oxidation. […] The cells were washed with cold PBS, and cell lysis buffer was added for lysis at 4 °C for 1 h on ice and centrifuged at 13,000 rpm for 20 min at […] to obtain supernatants. Protein concentration was quantified at 50 µg using a BCA protein assay kit. […] Absorbance was measured at 490 nm using a microplate reader.

B16F10 melanoma cells [1] = test: Cell viability, CCK-8 assay; assay type: cell-based, Murine; settings: 0.1–5 μM, 72 h
Procedure: Murine B16F10 melanoma cells (Korean Cell Line Bank, Seoul, Republic of Korea) were cultured in DMEM containing 10% FBS and 1% penicillin-streptomycin at 37 °C in the humidified atmosphere of a 5% CO2 incubator. The cells were cultured until 100% confluent for all experiments.
Cell viability was assessed using the CCK-8 kit. Cells were incubated in 96-well plates at a density of approximately 3 × 10^3 cells/well. After 24 h incubation, a kuraridin concentration (0.1–10 µM) of samples or medium was added to B16F10 cells at 72 h of incubation. Absorbance was monitored at 450 nm using a microplate reader (Synergy H(1), Biotek, VT, USA).

B16F10 melanoma cells [2] = test: Cellular melanin content (extracellular and intracellular) in α-MSH-induced cells; assay type: cell-based, Murine
Procedure: B16F10 melanoma cells (7.4 × 10⁴ cells/well) were seeded in a 6-well plate. […] The extracellular melanin content was measured by direct estimation of the absorbance of the cell-free culture medium at 405 nm. For the measurement of intracellular melanin content, cell pellets were dissolved in 1 N NaOH at 95 °C for 1 h. The absorbance of the resulting solution was measured at 405 nm using a microplate reader [Synergy H(1)].

tyrosinase [3] = biological target: T1, tyrosinase (Agaricus bisporus, UniProt C7FF04); test: Enzyme kinetic analysis of tyrosinase with L-tyrosine (Lineweaver-Burk, Dixon plots); assay type: biochemical; settings: substrate L-tyrosine
Procedure: (§1) Enzyme kinetics were analyzed using Lineweaver–Burk and Dixon reciprocal plots of the reaction rate and substrate concentration to evaluate the effect of the sample on the affinity of the substrate and enzyme. The tyrosinase concentration was kept constant at 200 U/mL, whereas the substrate (L-tyrosine/L-DOPA) concentration varied between 0.5 and 2.0 mM. The reaction was similar to the anti-tyrosinase assay described above; 100 µL of sample solution was added, followed by 100 µL of tyrosinase (200 units/mL) after incubation at 25 °C. The substrate was then added to the wells and mixed thoroughly, and kinetic measurements of the solution were performed at a wavelength of 475 nm.

tyrosinase [4] = biological target: T1, tyrosinase; test: Enzyme kinetic analysis of tyrosinase with L-DOPA (Lineweaver-Burk, Dixon plots); assay type: biochemical; settings: substrate L-DOPA
Procedure: as §1

tyrosinase [5] = system: tyrosinase; parameters: method as in Deri et al. (2016) [15]; settings: ref Deri et al. (2016) [15], cited from earlier work
[6] = α-MSH-induced B16F10 cells, 0.1–5 μM, dose-dependent
[7] = B16F10 cells, α-MSH stimulation 0.1 μM, 72 h, control = 100%

T1 sequence (G1K3P4 entry or part of it): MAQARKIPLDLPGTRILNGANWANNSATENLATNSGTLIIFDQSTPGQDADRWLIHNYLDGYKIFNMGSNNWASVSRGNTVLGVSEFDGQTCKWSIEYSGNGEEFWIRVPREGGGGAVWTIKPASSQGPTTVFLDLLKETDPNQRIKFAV
T1 sequence (C7FF04 2-392): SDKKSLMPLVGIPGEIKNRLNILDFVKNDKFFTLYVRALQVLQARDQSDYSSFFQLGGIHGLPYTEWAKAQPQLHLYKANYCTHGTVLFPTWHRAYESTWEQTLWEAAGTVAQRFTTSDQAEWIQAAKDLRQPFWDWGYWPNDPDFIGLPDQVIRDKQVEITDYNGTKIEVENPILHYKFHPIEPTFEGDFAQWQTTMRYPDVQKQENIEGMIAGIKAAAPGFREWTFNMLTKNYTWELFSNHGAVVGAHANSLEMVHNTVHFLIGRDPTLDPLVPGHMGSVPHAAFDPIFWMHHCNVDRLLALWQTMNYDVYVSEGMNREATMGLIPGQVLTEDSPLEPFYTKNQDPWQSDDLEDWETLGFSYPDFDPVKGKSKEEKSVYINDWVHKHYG

Inhibition Type L-Tyrosine (tyrosinase [3]): Non-competitive
Inhibition Type L-DOPA (tyrosinase [4]): Competitive
Inhibition Type L-DOPA (tyrosinase [4]; listed as kuraridin): competitive inhibition
Compound: C=C(C)[C@H](CC=C(C)C)Cc1c(O)cc(OC)c(C(=O)/C=C/c2ccc(O)cc2O)c1O [Kuraridin, kuraridin]
Intracellular tyrosinase activity (B16F10 cells; all tested concentrations (0.1–5 μM), vs α-MSH only, p < 0.001): significantly suppressed tyrosinase activity
Intracellular tyrosinase activity (B16F10 cells; lowest concentration 0.1 μM): reached control levels
Cytotoxicity (cell viability) (B16F10 melanoma cells [1]): without cytotoxicity
Extracellular melanin production (B16F10 melanoma cells [2]; [6]): significantly attenuated
Intracellular melanin production (B16F10 melanoma cells [2]; [6]): significantly attenuated
Intracellular melanin content lower than the untreated control (B16F10 melanoma cells [2]; α-MSH-treated B16F10 cells, 1 µM): 15%

Inhibition Type L-Tyrosine (tyrosinase [3]): Non-competitive
Compound: C=C(C)[C@H](CC=C(C)C)Cc1c(O)cc(O)c2c1O[C@H](c1ccccc1O)CC2=O [Kushenol A, kushenol A]

The remaining lines, values behind:

Compound: O=c1cc(CO)occ1O [Kojic acid]
Inhibition Type L-DOPA (tyrosinase [5]; substrate L-DOPA): Mixed ^2
Inhibition Type L-Tyrosine (tyrosinase [5]; substrate L-tyrosine): Mixed ^2

Compound: C=C(C)[C@H](CCC(C)(C)O)Cc1c(O)cc(OC)c2c1O[C@H](c1ccc(O)cc1O)CC2=O [Kurarinol, kurarinol]
Inhibition Type L-Tyrosine (tyrosinase [3]): Non-competitive

Compound: alpha-melanocyte-stimulating hormone [α-MSH, reference compound]
Increase of intracellular tyrosinase activity compared with control group (B16F10 cells; B16F10 cells, α-MSH 100 nM, 72 h): 1.8 fold
Extracellular melanin content (B16F10 melanoma cells [2]; [7]): approximately 132%
Intracellular melanin content (B16F10 melanoma cells [2]; [7]): ~127%
